According to patent US20230227547A1, “ANTIBODY-PAYLOAD CONJUGATES WITH ENHANCED DELIVERY DOMAIN AND USES THEREOF” (IPROGEN BIOTECH INC., priority 2019, published 2023):

What was measured:
[1] = tested on: T47D cells; experiment: Anti-HER2 mAb delivery efficiency using LL37-derived peptide constructs; format: cell-based, human; settings: for Delivery efficiency: peptide conjugated to anti-HER2 mAb light chain, 100 nM Ab, Z-GFP (PEP#6, 35-43) or Goat anti-human IgG-AlexaFluor 488 (PEP#6, 47-94) fluorescence microscopy; for delivery enhancement (in words): peptide conjugated to anti-HER2 mAb
Method: LL37 and LL37-derived peptides were produced synthetically with two additional N-terminal glycine residues (e.g. as shown in SEQ ID NO:2 compared to SEQ ID NO: 1) to enable the sortase reaction. The LL37-derived peptides (PEP#35 to #43, SEQ ID NOs: 13-21) were all dissolved at 10 mg/ml in phosphate buffer saline (PBS) at room temperature, sterile-filtered, and stored at -20° C. freezer. PEP#48 (SEQ ID: 74), PEP#49 (SEQ ID No: 75), and PEP#60 (SEQ ID NO: 105) were dissolved in 20% (v/v) acetonitrile in PBS. PEP#47 (SEQ ID NO: 96), PEP#86 (SEQ ID NO: 78), PEP#98 (SEQ ID NO: 79), PEP#99 (SEQ ID NO: 80), PEP#102 (SEQ ID NO: 82), and PEP#104 (SEQ ID NO: 84) were dissolved in DMSO. PEP#50 (SEQ ID No: 76), PEP#51 (SEQ ID No: 97), PEP#55 (SEQ ID No: 77), PEP#58 (SEQ ID No: 103), PEP#59 (SEQ ID No: 104), PEP#61 (SEQ ID No: 106), PEP#62 (SEQ ID No: 107), PEP#63 (SEQ ID No: 108), PEP#64 (SEQ ID No: 109), PEP#66 (SEQ ID No: 110), and PEP#94 (SEQ ID No: 35) were all dissolved in PBS. […] The reaction was incubated inside a 37° C. incubator for 16 hours, and then EDTA (pH 7.5) was added to 10 mM in the reaction mixture to chelate calcium and stop the reaction.
Delivery assay: The following delivery assay method was used on the anti-HER2 mAbs conjugated to the PEP#6, #35, #36, #37, #38, #39, #40, #41, #42, and #43 described in Table 7. […] The plates were then removed from the incubator, and the culturing media was removed from the adherent cells. The adherent cells were washed gently with an equal volume of ice-cold PBS. Then, the PBS wash was replaced 250 µl of fresh PBS for fluorescence microscope imaging.
At the end of incubation, the adherent target cells were washed twice with ice-cold PBS, fixed with 2% (w/v) formaldehyde in PBS at room temperature for 15 minutes, and washed twice with PBS at room temperature. The fixed adherent target cells were then permeabilized with 0.05% (v/v) Tween-20 in PBS at room temperature for 15 minutes. The permeabilized cells were then incubated with 5% (v/v) FBS, 0.05% (v/v) Tween-20 in PBS at 37 degree Celsius incubator for 30 minutes. The secondary antibody, Goat anti-human IgG-AlexaFluor 488, was added to 5 ug/ml in 5% (v/v) FBS, 0.05% (v/v) Tween-20 in PBS, and incubated with the treated target cells at 37 degree Celsius incubator for 30 minutes. After incubation, the labelled cells were washed twice with PBS, and stored in storage buffer [5% (v/v) FBS in PBS] at 4 degree Celsius until fluorescence microscope imaging. The delivery of mAb and mAb-LL37-derived peptides were determined qualitatively by estimating the green fluorescence intensity emitted from the AlexFluor488-labelled secondary antibody bound to mAb or mAb-LL37-derived peptides.

[2] = tested on: T47D cells; experiment: Cell viability assay with XTT, T47D; format: cell-based, human; settings: XTT (Taxol ADCs: 3 hours)
Method: The cell assay was done by treating/incubating the T47D cells with antibody drug conjugates for 3 hours in the 37 degree C tissue culture incubator. After treatment, cell viability was determined by XTT assay as described above.
(§2) After treatment, cell viability was determined by XTT assay as described above.

[3] = tested on: Ramos; experiment: Delivery assay, Goat anti-human IgG-AlexaFluor 488 fluorescence microscopy, Ramos; format: cell-based; set-up: key to Delivery efficiency of mAb (i.e., mAb): +++: Strong Alexa Fluor 488 (cyan/green) fluorescent intensity; ++: Medium level of Alexa Fluor 488 (cyan/green) fluorescent intensity; +: Weak, but noticeable Alexa Fluor 488 (cyan/green) fluorescent intensity; -: No signal
Method: Delivery assay. […] The culturing media containing the unbound antibodies were removed, and the MDA-MB-468 cells were washed with PBS. The adherent cells were treated with trypsin at 37 degree C for 1-2 minutes, neutralized in FACS buffer (2% v/v FBS, 2 mM EDTA, 0.05% w/v sodium azide in PBS), and transferred to FACS tubes on ice. The delivery of antibodies to cells was quantitated by measuring the red fluorescence intensity (i.e., PE-Texas Red color channel in the FACS detector) emitted fromZ-RFP bound to antibody. […] At the end of incubation, the adherent target cells were washed twice with ice-cold PBS, fixed with 2% (w/v) formaldehyde in PBS at room temperature for 15 minutes, and washed twice with PBS at room temperature. […] After incubation, the labelled cells were washed twice with PBS, and stored in storage buffer [5% (v/v) FBS in PBS] at 4 degree Celsius until fluorescence microscope imaging. The delivery of mAb and mAb-LL37 were determined qualitatively by estimating the green fluorescence intensity emitted from the AlexFluor488-labelled secondary antibody bound to mAb or mAb-LL37. […] The secondary anti-human IgG-AlexaFluor488 labelled target cells were washed and resuspended in PBS, and transferred to the clear polystyrene 48-well plates for fluorescence microscope imaging.

[4] = tested on: OVCAR3; experiment: Delivery assay, Goat anti-human IgG-AlexaFluor 488 fluorescence microscopy, OVCAR3; format: cell-based; set-up: key to Delivery efficiency of mAb (i.e., mAb): +++: Strong Alexa Fluor 488 (cyan/green) fluorescent intensity; ++: Medium level of Alexa Fluor 488 (cyan/green) fluorescent intensity; +: Weak, but noticeable Alexa Fluor 488 (cyan/green) fluorescent intensity; -: No signal; settings: Target cell OVCAR3; for Delivery enhancement: mAb-LL37 vs mAb
Method: (§1) Delivery assay. […] The culturing media containing the unbound antibodies were removed, and the MDA-MB-468 cells were washed with PBS. The adherent cells were treated with trypsin at 37 degree C for 1-2 minutes, neutralized in FACS buffer (2% v/v FBS, 2 mM EDTA, 0.05% w/v sodium azide in PBS), and transferred to FACS tubes on ice. The delivery of antibodies to cells was quantitated by measuring the red fluorescence intensity (i.e., PE-Texas Red color channel in the FACS detector) emitted fromZ-RFP bound to antibody. […] At the end of incubation, the adherent target cells were washed twice with ice-cold PBS, fixed with 2% (w/v) formaldehyde in PBS at room temperature for 15 minutes, and washed twice with PBS at room temperature. The fixed adherent target cells were then permeabilized with 0.05% (v/v) Tween-20 in PBS at room temperature for 15 minutes. The permeabilized cells were then incubated with 5% (v/v) FBS, 0.05% (v/v) Tween-20 in PBS at 37 degree Celsius incubator for 30 minutes. The secondary antibody, Goat anti-human IgG-AlexaFluor 488, was added to 5 ug/ml in 5% (v/v) FBS, 0.05% (v/v) Tween-20 in PBS, and incubated with the treated target cells at 37 degree Celsius incubator for 30 minutes. After incubation, the labelled cells were washed twice with PBS, and stored in storage buffer [5% (v/v) FBS in PBS] at 4 degree Celsius until fluorescence microscope imaging. The delivery of mAb and mAb-LL37 were determined qualitatively by estimating the green fluorescence intensity emitted from the AlexFluor488-labelled secondary antibody bound to mAb or mAb-LL37. […] However, Ramos [NT] […] The secondary anti-human IgG-AlexaFluor488 labelled target cells were washed and resuspended in PBS, and transferred to the clear polystyrene 48-well plates for fluorescence microscope imaging.

[5] = tested on: RT4v6; experiment: Delivery assay, Goat anti-human IgG-AlexaFluor 488 fluorescence microscopy, RT4v6; format: cell-based; settings: Target cell RT4v6; mAb-LL37 vs mAb
Method: as §1

[6] = tested on: RT4V6 cells; experiment: Cell viability assay with XTT, RT4V6; format: cell-based, human; settings: 72 hours treatment
Method: Cell viability assay with XTT. On day 1, cells (RT4V6, Neuro2A) were seeded at about 0.02 to 0.025 million cells per ml concentration and incubated overnight in the 37° C. incubator. […] XTT and PMS solutions were freshly prepared immediately before the assay, and were used right away. XTT/PMS were added to the treated cells to start the XTT reaction. […] Spectral absorbance was measured at 475 nm (XTT) and 660 nm (background), and viability calculated from the spectral absorbance difference at 475 nm and 660 nm.
Cell assay was done by treating/incubating the RT4V6 cells with antibody drug conjugates for 72 hours in the 37 degree C tissue culture incubator. After treatment, cell viability was determined by XTT assay as described above.
The cell assay was done by treating/incubating the RT4V6 cells with antibody drug conjugates for 72 hours in the 37 degree C tissue culture incubator. After treatment, cell viability was determined by XTT assay as described above.
as §2
(§3) Cell viability assay with XTT. […] After treatment, cell viability was determined by XTT assay as described above.

[7] = tested on: OVCAR3 cells; experiment: Cell viability assay with XTT, OVCAR3; format: cell-based, human; settings: 72 hours (FIG. 10: 24 hours) treatment
Method: Cell viability assay with XTT. On day 1, cells (OVCAR3) were seeded at about 0.02 to 0.025 million cells per ml concentration and incubated overnight in the 37 degree Celsius incubator. […] One set was incubated for 24 hours, and another set for 72 hours. On day 3, the set with 24 hours, the treatment were removed, and replaced with fresh growth media, and continued incubation for the next 48 hours (for the total of 72 hours). On day 5, the set with both 24 hours and 72 hours treatments were analyzed. […] XTT and PMS solutions were freshly prepared immediately before the assay, and were used right away. XTT/PMS were added to the treated cells to start the XTT reaction. […] Spectral absorbance was measured at 475 nm (XTT) and 660 nm (background), and viability calculated from the spectral absorbance difference at 475 nm and 660 nm.
The cell assay was done by treating/incubating the OVCAR3 cells with antibody drug conjugates for 3 hours in the 37 degree C tissue culture incubator. After treatment, cell viability was determined by XTT assay as described above.
as §2
Cell viability assay was carried out with XTT as as described above.
as §3

KRIVQRIKDFL [PEP#60]
Delivery efficiency [1]: +

IGKEFKRIVQRIKDFLRNLVPRTES [PEP#36]
Delivery efficiency [1]: ++ (Solid enhancement in delivery, but at lower efficiency than LL37) | killing of T47D / cell viability (in words) [2]: enhanced the anti-HER2 mAb-MMAE drug conjugate to kill T47D cells

Rituximab [Anti-CD20, Rituximab]
Delivery efficiency of mAb (i.e., mAb) ([3]; Target cell Ramos (suspension culture)): ++ | Delivery enhancement ([3]; Target cell Ramos, mAb-LL37 vs mAb): YES

LLGDFFRKSKEKIGKEFKRIVQRIKDFLRNLVPRTESC [PEP#94]
Delivery efficiency [1]: +++ (Same as LL37)

Lifastuzumab [Anti-NaPi2b, Lifastuzumab]
Delivery efficiency of mAb (i.e., mAb) ([4]; 100 nM, 3 hours): + | Delivery enhancement [4]: YES | Delivery enhancement ([4]; listed as lifastuzumab): significantly increases the delivery | Delivery enhancement [5]: significantly increases the delivery

MMWLL [PEP#47, reference compound]
delivery enhancement (in words) [1]: confirmed to not enhance antibody delivery to target cells alone

GSIGKEFKRIVQRIKDFLR [PEP#66]
Delivery efficiency [1]: ++ (Solid enhancement in delivery, but at lower efficiency than LL37)

LLGDFFRKSKEKIGKEFKRIVQRIK [PEP#35]
Delivery efficiency [1]: +

IGKEFKRIVQRI [PEP#40]
Delivery efficiency [1]: +

KEFKRIVQRIKDFLRGGGGSRLFDKIRQVIRKFEKG [PEP#55]
Delivery efficiency [1]: +++ (Same as LL37) | killing of RT4V6 / cell viability (in words) [6]: strongly enhance ADC killing | killing of OVCAR3 / cell viability (in words) [7]: strongly enhance ADC killing

LLGDFFRQSKEKIGKEFQQIVQQIKDFLQNLVPQTES [PEP#49]
delivery enhancement (in words) [1]: abolished the antibody delivery enhancement
